This passage reports IC50 results from patent EP1953147A1, “HETEROCYCLIC COMPOUND AND MEDICINAL APPLICATION THEREOF” (priority 2005, dated 2007).

One may read the IC50 as the concentration that inhibits the measured activity by half. A high value points to a need for much substance.

The assay concerns ΔG/SEAP/HCV E1E2. Briefly: Effect of test substance on cell infection with HCV pseudotype virus (SEAP reporter assay in HepG2 cells). The format is cell-based. As to conditions: Hepatitis C virus. (In general: Reporter assays use an easily measured gene product as a stand-in for the process of interest.)

Structures are written as SMILES.

Molecule `COc1cc(OC)cc(-c2nn(-c3cc(C(=O)O)ccc3C(F)(F)F)c(=O)c3c2CCC3)c1` [Example 1-10, 3-[4-(3,5-dimethoxy-phenyl)-1-oxo-1,5,6,7-tetrahydro-cyclopenta[d]pyridazin-2-yl]-4-trifluoromethyl-benzoic acid] showed an IC50 of 100 to 10000 nM.
`CNC(=O)CCCNc1ccc(C(F)(F)F)c(-n2nc(-c3cc(OC)cc(OC)c3)c3c(c2=O)CCC3)c1` [Example 153, 4-{3-[4-(3,5-dimethoxy-phenyl)-1-oxo-1,5,6,7-tetrahydro-cyclopenta[d]pyridazin-2-yl]-4-trifluoromethyl-phenylamino}-N-methyl-butyramide] came in with an IC50 of under 100 nM.
To `Cc1ccc(-c2nn(-c3cc(N4CC[C@H](O)C4)ccc3C(F)(F)F)c(=O)c3c2CCC3)cc1` [Example 114, 2-[5-((S)-3-hydroxy-pyrrolidin-1-yl)-2-trifluoromethyl-phenyl]-4-p-tolyl-2,5,6,7-tetrahydro-cyclopenta[d]pyridazin-1-one] belongs under 100 nM; to `COc1cc(OC)cc(-c2nn(-c3cc(N4CC[C@H](O)C4)ccc3C(F)(F)F)c(=O)c3c2CCN3CC(=O)NCCCCNC(C)=O)c1` [Example 44, N-(4-acetylamino-butyl)-2-{4-(3,5-dimethoxy-phenyl)-6-[5-((S)-3-hydroxy-pyrrolidin-1-yl)-2-trifluoromethyl-phenyl]-7-oxo-2,3,6,7-tetrahydro-pyrrolo[2,3-d]pyridazin-1-yl}-acetamide], under 100 nM; to `CC(=O)N[C@@H]1CCN(c2ccc(C(F)(F)F)c(-n3nc(-c4cc(C)cc(C)c4)c4c(c3=O)N(CC(N)=O)CC4)c2)C1` [Example 1-27, {6-[5-((R)-3-acetylamino-pyrrolidin-1-yl)-2-trifluoromethyl-phenyl]-4-(3,5-dimethyl-phenyl)-7-oxo-2,3,6,7-tetrahydro-pyrrolo[2,3-d]pyridazin-1-yl}-acetamide], under 100 nM.
Next, `COc1cc(OC)cc(-c2nn(-c3cc(NCCNS(C)(=O)=O)ccc3C(F)(F)F)c(=O)c3c2CCC3)c1` [Example 137, N-(2-{3-[4-(3,5-dimethoxy-phenyl)-1-oxo-1,5,6,7-tetrahydro-cyclopenta[d]pyridazin-2-yl]-4-trifluoromethyl-phenylamino}-ethyl)-methanesulfonamide]: under 100 nM; `COc1cc(OC)cc(-c2nn(-c3cc(NC(C)CO)ccc3C(F)(F)F)c(=O)c3c2CCC3)c1` (stereo not shown) [Example 131, 4-(3,5-dimethoxy-phenyl)-2-[5-(2-hydroxy-1-methyl-ethylamino)-2-trifluoromethyl-phenyl]-2,5,6,7-tetrahydro-cyclopenta[d]pyridazin-1-one]: under 100 nM; `COc1cc(OC)cc(-c2nn(-c3cc(NCCN(C)C)ccc3C(F)(F)F)c(=O)c3c2CCC3)c1` [Example 116, 4-(3,5-dimethoxy-phenyl)-2-[5-(2-dimethylamino-ethylamino)-2-trifluoromethyl-phenyl]-2,5,6,7-tetrahydro-cyclopenta[d]pyridazin-1-one]: under 100 nM.
To `O=c1c2c(c(-c3cccc(Br)c3)nn1-c1cc(N3CC[C@H](O)C3)ccc1C(F)(F)F)CCC2` [Example 73, 4-(3-bromo-phenyl)-2-[5-((S)-3-hydroxy-pyrrolidin-1-yl)-2-trifluoromethyl-phenyl]-2,5,6,7-tetrahydro-cyclopenta[d]pyridazin-1-one] belongs under 100 nM.
On to `COC(=O)CNc1ccc(C(F)(F)F)c(-n2nc(-c3cc(OC)cc(OC)c3)c3c(c2=O)CCC3)c1` [Example 126, {3-[4-(3,5-dimethoxy-phenyl)-1-oxo-1,5,6,7-tetrahydro-cyclopenta[d]pyridazin-2-yl]-4-trifluoromethyl-phenylamino}-acetic acid methyl ester], for which the IC50 is under 100 nM.
On to `COc1cc(OC)cc(-c2nn(-c3cc(N4CC[C@H](O)C4)ccc3C(F)(F)F)c(=O)c3c2CCN3CCN)c1` [Example 49, 1-(2-amino-ethyl)-4-(3,5-dimethoxy-phenyl)-6-[5-((S)-3-hydroxy-pyrrolidin-1-yl)-2-trifluoromethylphenyl]-1,2,3,6-tetrahydro-pyrrolo[2,3-d]pyridazin-7-one], for which the IC50 is under 100 nM.
Next, `COc1cc(OC)cc(-c2nn(-c3cc(N4CC[C@H](O)C4)ccc3C(F)(F)F)c(=O)c3c2OCC3)c1` [Example 1-35, 7-(3,5-dimethoxy-phenyl)-5-[5-((S)-3-hydroxy-pyrrolidin-1-yl)-2-trifluoromethyl-phenyl]-3,5-dihydro-2H-furo[2,3-d]pyridazin-4-one]: under 100 nM; `COc1cc(OC)cc(-c2nn(-c3cc(NCCCC(=O)N(C)C)ccc3C(F)(F)F)c(=O)c3c2CCC3)c1` [Example 154, 4-{3-[4-(3,5-dimethoxy-phenyl)-1-oxo-1,5,6,7-tetrahydro-cyclopenta[d]pyridazin-2-yl]-4-trifluoromethyl-phenylamino}-N,N-dimethyl-butyramide]: under 100 nM.
Next, `COc1cc(OC)cc(-c2nn(-c3cc(OC)ccc3C(F)(F)F)c(=O)c3c2CCC3)c1` [Example 69, 4-(3,5-dimethoxy-phenyl)-2-(5-methoxy-2-trifluoromethyl-phenyl)-2,5,6,7-tetrahydro-cyclopenta[d]pyridazin-1-one]: under 100 nM; `CN(C)c1ccc(-c2nn(-c3cc(N4CC[C@H](O)C4)ccc3C(F)(F)F)c(=O)c3c2CCC3)cc1` [Example 112, 4-(4-dimethylamino-phenyl)-2-[5-((S)-3-hydroxy-pyrrolidin-1-yl)-2-trifluoromethyl-phenyl]-2,5,6,7-tetrahydro-cyclopenta[d]pyridazin-1-one]: under 100 nM; `O=c1c2c(c(-c3ccc(C(F)(F)F)cc3)nn1-c1cc(N3CC[C@H](O)C3)ccc1C(F)(F)F)CCC2` [Example 75, 2-[5-((S)-3-hydroxy-pyrrolidin-1-yl)-2-trifluoromethyl-phenyl]-4-(4-trifluoromethyl-phenyl)-2,5,6,7-tetrahydro-cyclopenta[d]pyridazin-1-one]: 100 to 10000 nM.
Next, `COc1cc(OC)cc(-c2nn(-c3cc(N4CC(CO)C4)ccc3C(F)(F)F)c(=O)c3c2CCN3)c1` [Example 1-42, 4-(3,5-dimethoxy-phenyl)-6-[5-(3-hydroxymethyl-azetidin-1-yl)-2-trifluoromethyl-phenyl]-1,2,3,6-tetrahydro-pyrrolo[2,3-d]pyridazin-7-one]: under 100 nM.
In turn, `O=c1c2c(c(-c3ccccn3)nn1-c1cc(N3CC[C@H](O)C3)ccc1C(F)(F)F)CCC2` [Example 110, 2-[5-((S)-3-hydroxy-pyrrolidin-1-yl)-2-trifluoromethyl-phenyl]-4-pyridin-2-yl-2,5,6,7-tetrahydro-cyclopenta[d]pyridazin-1-one] gave an IC50 of 100 to 10000 nM.
To `COc1cc(OC)cc(-c2nn(-c3c(Cl)cccc3Cl)c(=O)c3c2CCC3)c1` [Example 87, 2-(2,6-dichloro-phenyl)-4-(3,5-dimethoxy-phenyl)-2,5,6,7-tetrahydro-cyclopenta[d]pyridazin-1-one] belongs under 100 nM.
Next, `COc1cc(OC)cc(-c2nn(-c3cc(NCCO)ccc3C(F)(F)F)c(=O)c3c2CCC3)c1` [Example 91, 4-(3,5-dimethoxy-phenyl)-2-[5-(2-hydroxy-ethylamino)-2-trifluoromethyl-phenyl]-2,5,6,7-tetrahydro-cyclopenta[d]pyridazin-1-one]: under 100 nM.
To `CN(C)c1cccc(-c2nn(-c3cc(N4CC[C@H](O)C4)ccc3C(F)(F)F)c(=O)c3c2CCC3)c1` [Example 85, 4-(3-dimethylamino-phenyl)-2-[5-((S)-3-hydroxy-pyrrolidin-1-yl)-2-trifluoromethyl-phenyl]-2,5,6,7-tetrahydro-cyclopenta[d]pyridazin-1-one] belongs under 100 nM; to `O=c1c2c(c(-c3ccccc3Cl)nn1-c1cc(N3CC[C@H](O)C3)ccc1C(F)(F)F)CCC2` [Example 96, 4-(2-chloro-phenyl)-2-[5-((S)-3-hydroxy-pyrrolidin-1-yl)-2-trifluoromethyl-phenyl]-2,5,6,7-tetrahydro-cyclopenta[d]pyridazin-1-one], 100 to 10000 nM; to `Cc1cc(-c2cnco2)cc(-c2nn(-c3cc(N4CC[C@H](O)C4)ccc3C(F)(F)F)c(=O)c3c2CCC3)c1` [Example 2, 2-[5-((S)-3-hydroxy-pyrrolidin-1-yl)-2-trifluoromethyl-phenyl]-4-(3-methyl-5-oxazol-5-yl-phenyl)-2,5,6,7-tetrahydro-cyclopenta[d]pyridazin-1-one], under 100 nM.
`O=c1c2c(c(-c3ccccc3F)nn1-c1cc(N3CC[C@H](O)C3)ccc1C(F)(F)F)CCC2` [Example 105, 4-(2-fluoro-phenyl)-2-[5-((S)-3-hydroxy-pyrrolidin-1-yl)-2-trifluoromethyl-phenyl]-2,5,6,7-tetrahydro-cyclopenta[d]pyridazin-1-one] returned an IC50 of 100 to 10000 nM.
Next, `CCC(=O)Nc1ccc(C(F)(F)F)c(-n2nc(-c3cc(OC)cc(OC)c3)c3c(c2=O)CCC3)c1` [Example 57, N-{3-[4-(3,5-dimethoxy-phenyl)-1-oxo-1,5,6,7-tetrahydro-cyclopenta[d]pyridazin-2-yl]-4-trifluoromethyl-phenyl}-propionamide]: under 100 nM; `O=C(O)c1cccc(-c2nn(-c3cc(N4CC[C@H](O)C4)ccc3C(F)(F)F)c(=O)c3c2CCC3)c1` [Example 79, 3-{3-[5-((S)-3-hydroxy-pyrrolidin-1-yl)-2-trifluoromethyl-phenyl]-4-oxo-4,5,6,7-tetrahydro-3H-cyclopenta[d]pyridazin-1-yl}-benzoic acid]: 100 to 10000 nM; `O=c1c2c(c(-c3cccs3)nn1-c1cc(N3CC[C@H](O)C3)ccc1C(F)(F)F)CCC2` [Example 1-17, 2-[5-((S)-3-hydroxy-pyrrolidin-1-yl)-2-trifluoromethylphenyl]-4-(thiophen-2-yl)-2,5,6,7-tetrahydro-cyclopenta[d]pyridazin-1-one]: under 100 nM.
To `COc1cc(OC)cc(-c2nn(-c3cc(NCC(=O)OC(C)(C)C)ccc3C(F)(F)F)c(=O)c3c2CCC3)c1` [Example 94, {3-[4-(3,5-dimethoxy-phenyl)-1-oxo-1,5,6,7-tetrahydro-cyclopenta[d]pyridazin-2-yl]-4-trifluoromethyl-phenylamino}-acetic acid tert-butyl ester] belongs 100 to 10000 nM.
